Measurements published in US8541363B2, “Pyruvamide compounds as inhibitors of dust mite group 1 peptidase allergen and their use” (St George's Hosptial Medical School, priority 2010, dated 2013).
Where two headings read alike, the source gives them in different places.

What was measured:
[1] = test system: Brown Norway rats sensitized to HDM allergens; experiment: Allergen challenge study in vivo (acute allergic bronchoconstriction); design: species or system rat; conditions: challenge 2 hours after intratracheal dosing (100 μL of a 40 μM solution), P<0.05, Mann-Whitney Rank Sum Test
Protocol: The studies were performed in male Brown Norway rats (approximate weight 350 g at time of allergen challenge) obtained from Harlan UK Ltd. Each animal was allocated a unique identification number after sensitisation, identified by a waterproof tail mark, and randomly assigned to a treatment group. All studies were conducted in accordance with the Animals (Scientific Procedures) Act 1986, with UK Home Office Guidance on the implementation of the Act and with all applicable Codes of Practice for the care and housing of laboratory animals.
A mixture of HDM allergens was harvested from a laboratory culture of Dermatophagoides pteronyssinus. Allergen dose was standardized according to the Der p 1 content of the mixture as determined by an ELISA measurement referenced against the IUIS standard for Der p 1. […]
On Day 21 of the sensitization and challenge protocol, rats were anaesthetised with pentobarbitone (100 mg/kg, i.p.) and ventilated via a tracheal cannula (approximately 7 mL/kg, 1 Hz) with a mixture of air and oxygen (50:50). […] Ventilation was monitored by a flow transducer (Fleisch, type 0000) in-line with the respiratory pump. […] From these measurements of flow and differential pressure, both airways resistance (RL) and dynamic compliance (Cdyn) were calculated for each respiratory cycle on a digital electronic respiratory analyser (PMS, Mumed Ltd, UK). […]

Der p 1 = Der p 1 (Dermatophagoides pteronyssinus (European house dust mite), UniProt P08176); experiment: Der p 1 enzyme activity assay (FRET fluorogenic substrate); assay type: biochemical
[2] = Table 1, read-out: Der p 1 IC50

Chain of Der p 1 (P08176 99-320): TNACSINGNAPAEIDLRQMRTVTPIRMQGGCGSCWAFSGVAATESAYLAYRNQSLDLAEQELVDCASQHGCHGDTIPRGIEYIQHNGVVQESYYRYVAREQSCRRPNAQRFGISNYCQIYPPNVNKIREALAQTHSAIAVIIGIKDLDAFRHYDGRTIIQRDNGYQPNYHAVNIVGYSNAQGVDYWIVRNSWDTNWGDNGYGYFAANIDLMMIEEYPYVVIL

SMILES: CC(C)[C@H](NC(=O)[C@H](C)NC(=O)[C@@H](NC(=O)c1ccccc1)C(C)(C)C)C(=O)C(=O)NC1CCCCC1 [PVA-026]
- magnitude of second allergen challenge (change in airway resistance) compared to first challenge [1]: significantly reduced
- IC50 (Der p 1; Der p 1 IC50): < 20 nM
- IC50 (Der p 1; [2]): 14 nM

SMILES: CC(C)[C@H](NC(=O)[C@H](C)NC(=O)[C@@H](NC(=O)c1ccncc1)C(C)(C)C)C(=O)C(=O)NC1CCCCC1 [PVA-038]
- magnitude of second allergen challenge (change in airway resistance) compared to first challenge [1]: significantly reduced
- IC50 (Der p 1; Der p 1 IC50): < 20 nM
- IC50 (Der p 1; [2]): 13.3 nM
